From patent publication US20250353891A1 (MEDIMMUNE LIMITED, priority 2022, published 2025)
Starred links: 1 amine or outer side, 2 acyl side, 3 side chain; linkers in the order of their positions; H or OH if unused. Non-standard residues stand in square brackets, D forms with d. Residues, ends and D or L forms follow the SMILES beside them. Groups on a side chain read outwards from the residue. *: point of attachment. C18 diacid = O=C(O)CCCCCCCCCCCCCCCCC(=O)*; γGlu = O=C(O)[C@H](CCC(=O)[*:2])N[*:1]; αMeF = C[C@](N)(Cc1ccccc1)C(=O)O; AEEA = NCCOCCOCC(=O)O; Aib = CC(C)(N)C(=O)O

Key:
[1] = target: human GLP-1 receptor (hGLP-1R) (Homo sapiens, UniProt P43220); assay: cAMP production (HTRF) in CHO cells expressing hGLP-1R; assay type: cell-based; set-up: expressed in transfected cells; settings: for EC50: Table 6, peptides modified at position 17, cAMP in CHO hGLP-1R cells, geometric mean, read-out: hGLP-1R EC50; for % Relative Potency Ratio: Table 6, % GLP-1R activity relative to GLP-1 / % GlucR activity relative to glucagon
Method in brief: (§1)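 Potency values represent EC50 from 4-parameter logistic curves of HTRF % Delta F signal. Receptor-expressing CHO cells (hGCGR 2×10^5 cells/mL, hGLP-1R 1×10^5 cells/mL) were exposed for 30 min at room temperature before two-step cAMP detection.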

[2] = target: human glucagon receptor (hGCGR) (Homo sapiens, UniProt P47871); assay: cAMP production (HTRF) in CHO cells expressing hGCGR; assay type: cell-based; set-up: expressed in transfected cells; settings: Table 6, peptides modified at position 17; cAMP in CHO hGCGR cells; geometric mean; read-out: hGluc-R EC50
Method in brief: as §1

Chain of human GLP-1 receptor (hGLP-1R) (P43220 24-463): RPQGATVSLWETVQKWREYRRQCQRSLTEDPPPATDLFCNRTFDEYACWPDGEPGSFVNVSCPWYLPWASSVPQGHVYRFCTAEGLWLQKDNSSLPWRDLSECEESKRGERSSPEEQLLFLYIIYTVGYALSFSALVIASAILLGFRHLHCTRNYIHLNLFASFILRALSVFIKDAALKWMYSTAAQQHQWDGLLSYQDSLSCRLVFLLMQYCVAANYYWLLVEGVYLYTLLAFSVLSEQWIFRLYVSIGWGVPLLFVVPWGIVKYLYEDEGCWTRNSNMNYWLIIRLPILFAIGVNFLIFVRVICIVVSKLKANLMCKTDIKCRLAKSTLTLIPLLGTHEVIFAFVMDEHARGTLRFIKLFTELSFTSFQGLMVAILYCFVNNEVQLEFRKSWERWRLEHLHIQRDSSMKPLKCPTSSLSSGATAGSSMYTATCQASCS
Chain of human glucagon receptor (hGCGR) (P47871 26-477): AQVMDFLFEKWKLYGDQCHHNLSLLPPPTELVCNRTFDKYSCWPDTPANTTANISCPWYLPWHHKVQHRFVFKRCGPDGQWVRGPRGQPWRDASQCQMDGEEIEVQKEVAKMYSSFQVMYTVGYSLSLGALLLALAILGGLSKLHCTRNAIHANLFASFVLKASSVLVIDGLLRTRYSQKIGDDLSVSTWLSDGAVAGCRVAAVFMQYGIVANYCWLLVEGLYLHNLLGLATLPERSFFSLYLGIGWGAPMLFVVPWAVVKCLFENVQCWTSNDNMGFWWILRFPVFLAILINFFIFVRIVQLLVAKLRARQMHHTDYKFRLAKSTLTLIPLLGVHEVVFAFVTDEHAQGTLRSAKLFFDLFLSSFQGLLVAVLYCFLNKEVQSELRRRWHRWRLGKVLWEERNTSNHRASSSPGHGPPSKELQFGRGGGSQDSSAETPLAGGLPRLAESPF

Structure (SMILES)	EC50 [1] [nM]	% Relative Potency Ratio [1]	EC50 [2] [nM]
CC(C)C[C@H](NC(=O)[C@H](Cc1c[nH]c2ccccc12)NC(=O)[C@H](CCCNC(=N)N)NC(=O)[C@@H](NC(=O)[C@H](Cc1ccccc1)NC(=O)[C@H](CC(=O)O)NC(=O)[C@H](CCC(N)=O)NC(=O)[C@H](C)NC(=O)[C@H](CCCNC(=N)N)NC(=O)[C@H](CCCCNC(=O)CC[C@H](NC(=O)CC[C@H](NC(=O)COCCOCCNC(=O)COCCOCCNC(=O)CC[C@H](NC(=O)CC[C@H](NC(=O)CCCCCCCCCCCCCCCCC(=O)O)C(=O)O)C(=O)O)C(=O)O)C(=O)O)NC(=O)[C@H](CO)NC(=O)[C@H](CC(=O)O)NC(=O)[C@H](CC(C)C)NC(=O)[C@](C)(Cc1ccccc1)NC(=O)[C@H](CCCCN)NC(=O)[C@H](CO)NC(=O)[C@@H](NC(=O)[C@H](CC(=O)O)NC(=O)[C@H](CO)NC(=O)[C@@H](NC(=O)[C@H](Cc1ccccc1)NC(=O)[C@@H](NC(=O)CNC(=O)[C@H](CCC(N)=O)NC(=O)C(C)(C)NC(=O)[C@@H](N)Cc1c[nH]cn1)[C@@H](C)O)[C@@H](C)O)C(C)C)C(C)C)C(=O)N[C@@H](CC(C)C)C(=O)N[C@@H](CCC(=O)O)C(=O)NC(C)(C)C(=O)NCC(=O)O [Peptide 138] (H-H[Aib]QGTFTSDVSK[αMeF]LDSK([γGlu-γGlu-AEEA-AEEA-γGlu-γGlu-C18 diacid])RAQDFVRWLLE[Aib]G-OH; N-terminus assumed)	0.104	3.5	0.184
CC(C)C[C@H](NC(=O)[C@H](Cc1c[nH]c2ccccc12)NC(=O)[C@H](CCCNC(=N)N)NC(=O)[C@@H](NC(=O)[C@H](Cc1ccccc1)NC(=O)[C@H](CC(=O)O)NC(=O)[C@H](CCC(N)=O)NC(=O)[C@H](C)NC(=O)[C@H](CCCNC(=N)N)NC(=O)[C@H](CCCCNC(=O)CC[C@H](NC(=O)CC[C@H](NC(=O)COCCOCCNC(=O)COCCOCCNC(=O)CC[C@H](NC(=O)CC[C@H](NC(=O)CCCCCCCCCCCCCCCCCCC(=O)O)C(=O)O)C(=O)O)C(=O)O)C(=O)O)NC(=O)[C@H](CO)NC(=O)[C@H](CC(=O)O)NC(=O)[C@H](CC(C)C)NC(=O)[C@](C)(Cc1ccccc1)NC(=O)[C@H](CCCCN)NC(=O)[C@H](CO)NC(=O)[C@@H](NC(=O)[C@H](CC(=O)O)NC(=O)[C@H](CO)NC(=O)[C@@H](NC(=O)[C@H](Cc1ccccc1)NC(=O)[C@@H](NC(=O)CNC(=O)[C@H](CCC(N)=O)NC(=O)C(C)(C)NC(=O)[C@@H](N)Cc1c[nH]cn1)[C@@H](C)O)[C@@H](C)O)C(C)C)C(C)C)C(=O)N[C@@H](CC(C)C)C(=O)N[C@@H](CCC(=O)O)C(=O)NC(C)(C)C(=O)NCC(=O)O [Peptide 139]	0.63	3.1	0.984
CC(C)C[C@H](NC(=O)[C@H](Cc1c[nH]c2ccccc12)NC(=O)[C@H](C)NC(=O)[C@@H](NC(=O)[C@H](Cc1ccccc1)NC(=O)[C@H](CC(=O)O)NC(=O)[C@H](CCC(N)=O)NC(=O)[C@H](C)NC(=O)[C@H](CCCNC(=N)N)NC(=O)[C@H](CCCCNC(=O)COCCOCCNC(=O)COCCOCCNC(=O)CC[C@H](NC(=O)CCCCCCCCCCCCCCCCC(=O)O)C(=O)O)NC(=O)[C@H](CO)NC(=O)[C@H](CC(=O)O)NC(=O)[C@H](CC(C)C)NC(=O)[C@](C)(Cc1ccccc1)NC(=O)[C@H](CCCCN)NC(=O)[C@H](CO)NC(=O)[C@@H](NC(=O)[C@H](CC(=O)O)NC(=O)[C@H](CO)NC(=O)[C@@H](NC(=O)[C@H](Cc1ccccc1)NC(=O)[C@@H](NC(=O)CNC(=O)[C@H](CCC(N)=O)NC(=O)C(C)(C)NC(=O)[C@@H](N)Cc1c[nH]cn1)[C@@H](C)O)[C@@H](C)O)C(C)C)C(C)C)C(=O)N[C@@H](CC(C)C)C(=O)N[C@@H](CCC(=O)O)C(=O)NC(C)(C)C(=O)NCC(=O)O [Peptide 141] (H-H[Aib]QGTFTSDVSK[αMeF]LDSK([AEEA-AEEA-γGlu-C18 diacid])RAQDFVAWLLE[Aib]G-OH; N-terminus assumed)	0.264	2.9	0.392
CC(C)C[C@H](NC(=O)[C@H](Cc1c[nH]c2ccccc12)NC(=O)[C@H](C)NC(=O)[C@@H](NC(=O)[C@H](Cc1ccccc1)NC(=O)[C@H](CC(=O)O)NC(=O)[C@H](CCCNC(=N)N)NC(=O)[C@H](C)NC(=O)[C@H](CCCNC(=N)N)NC(=O)[C@H](CCCCNC(=O)COCCOCCNC(=O)COCCOCCNC(=O)CC[C@H](NC(=O)CCCCCCCCCCCCCCCCC(=O)O)C(=O)O)NC(=O)[C@H](CO)NC(=O)[C@H](CC(=O)O)NC(=O)[C@H](CC(C)C)NC(=O)[C@](C)(Cc1ccccc1)NC(=O)[C@H](CCCCN)NC(=O)[C@H](CO)NC(=O)[C@@H](NC(=O)[C@H](CC(=O)O)NC(=O)[C@H](CO)NC(=O)[C@@H](NC(=O)[C@H](Cc1ccccc1)NC(=O)[C@@H](NC(=O)CNC(=O)[C@H](CCC(N)=O)NC(=O)C(C)(C)NC(=O)[C@@H](N)Cc1c[nH]cn1)[C@@H](C)O)[C@@H](C)O)C(C)C)C(C)C)C(=O)N[C@@H](CC(C)C)C(=O)N[C@@H](CCC(=O)O)C(=O)NC(C)(C)C(=O)NCC(=O)O [Peptide 142] (H-H[Aib]QGTFTSDVSK[αMeF]LDSK([AEEA-AEEA-γGlu-C18 diacid])RARDFVAWLLE[Aib]G-OH; N-terminus assumed)	0.0594	3.6	0.108
CC(C)C[C@H](NC(=O)[C@H](Cc1c[nH]c2ccccc12)NC(=O)[C@H](CCC(N)=O)NC(=O)[C@@H](NC(=O)[C@H](Cc1ccccc1)NC(=O)[C@H](CC(=O)O)NC(=O)[C@H](CCCNC(=N)N)NC(=O)[C@H](C)NC(=O)[C@H](CCCNC(=N)N)NC(=O)[C@H](CCCCNC(=O)COCCOCCNC(=O)COCCOCCNC(=O)CC[C@H](NC(=O)CCCCCCCCCCCCCCCCC(=O)O)C(=O)O)NC(=O)[C@H](CO)NC(=O)[C@H](CC(=O)O)NC(=O)[C@H](CC(C)C)NC(=O)[C@](C)(Cc1ccccc1)NC(=O)[C@H](CCCCN)NC(=O)[C@H](CO)NC(=O)[C@@H](NC(=O)[C@H](CC(=O)O)NC(=O)[C@H](CO)NC(=O)[C@@H](NC(=O)[C@H](Cc1ccccc1)NC(=O)[C@@H](NC(=O)CNC(=O)[C@H](CCC(N)=O)NC(=O)C(C)(C)NC(=O)[C@@H](N)Cc1c[nH]cn1)[C@@H](C)O)[C@@H](C)O)C(C)C)C(C)C)C(=O)N[C@@H](CC(C)C)C(=O)N[C@@H](CCC(=O)O)C(=O)NC(C)(C)C(=O)NCC(=O)O [Peptide 143] (H-H[Aib]QGTFTSDVSK[αMeF]LDSK([AEEA-AEEA-γGlu-C18 diacid])RARDFVQWLLE[Aib]G-OH; N-terminus assumed)	0.0191	3.4	0.0326
CC[C@H](C)[C@H](NC(=O)CNC(=O)[C@H](CCCNC(=N)N)NC(=O)[C@H](CO)NC(=O)[C@H](C)NC(=O)[C@H](CC(C)C)NC(=O)[C@H](Cc1c[nH]c2ccccc12)NC(=O)[C@H](CCCNC(=N)N)NC(=O)[C@@H](NC(=O)[C@H](Cc1ccccc1)NC(=O)[C@H](CC(=O)O)NC(=O)[C@H](CCC(N)=O)NC(=O)[C@H](C)NC(=O)[C@H](CCCNC(=N)N)NC(=O)[C@H](CCCCNC(=O)COCCOCCNC(=O)COCCOCCNC(=O)CC[C@H](NC(=O)CCCCCCCCCCCCCCCCC(=O)O)C(=O)O)NC(=O)[C@H](CO)NC(=O)[C@H](CC(=O)O)NC(=O)[C@H](CC(C)C)NC(=O)[C@](C)(Cc1ccccc1)NC(=O)[C@H](CCCCN)NC(=O)[C@H](CO)NC(=O)[C@@H](NC(=O)[C@H](CC(=O)O)NC(=O)[C@H](CO)NC(=O)[C@@H](NC(=O)[C@H](Cc1ccccc1)NC(=O)[C@@H](NC(=O)CNC(=O)[C@H](CCC(N)=O)NC(=O)C(C)(C)NC(=O)[C@@H](N)Cc1c[nH]cn1)[C@@H](C)O)[C@@H](C)O)C(C)C)C(C)C)C(=O)O [Peptide 145] (H-H[Aib]QGTFTSDVSK[αMeF]LDSK([AEEA-AEEA-γGlu-C18 diacid])RAQDFVRWLASRGI-OH)	0.0226	401.2	4.59
CC(C)C[C@H](NC(=O)[C@H](Cc1c[nH]c2ccccc12)NC(=O)[C@H](CCCNC(=N)N)NC(=O)[C@@H](NC(=O)[C@H](Cc1ccccc1)NC(=O)[C@H](CC(=O)O)NC(=O)[C@H](CCC(N)=O)NC(=O)[C@H](C)NC(=O)[C@H](CCCNC(=N)N)NC(=O)[C@H](CCCCNC(=O)COCCOCCNC(=O)COCCOCCNC(=O)CC[C@H](NC(=O)CCCCCCCCCCCCCCCCC(=O)O)C(=O)O)NC(=O)[C@H](CO)NC(=O)[C@H](CC(=O)O)NC(=O)[C@H](CC(C)C)NC(=O)[C@](C)(Cc1ccccc1)NC(=O)[C@H](CCCCN)NC(=O)[C@H](CO)NC(=O)[C@@H](NC(=O)[C@H](CC(=O)O)NC(=O)[C@H](CO)NC(=O)[C@@H](NC(=O)[C@H](Cc1ccccc1)NC(=O)[C@@H](NC(=O)CNC(=O)[C@H](CCC(N)=O)NC(=O)C(C)(C)NC(=O)[C@@H](N)Cc1c[nH]cn1)[C@@H](C)O)[C@@H](C)O)C(C)C)C(C)C)C(=O)N[C@@H](C)C(=O)N[C@@H](CO)C(=O)N[C@@H](CCCNC(=N)N)C(=O)O [Peptide 146] (H-H[Aib]QGTFTSDVSK[αMeF]LDSK([AEEA-AEEA-γGlu-C18 diacid])RAQDFVRWLASR-OH; N-terminus assumed)	0.0246	131.3	1.63
